Source: US10815233B2, “Dihydroindolizinone derivative” (ONO PHARMACEUTICAL CO., LTD., priority 2014, dated 2020)
Marks after values point to notes of the source that are not given here.

How the values were obtained:
[1] = molecular target: T1, human blood coagulation factor XIa (Homo sapiens, UniProt P03951); assay: Inhibitory activity on human blood coagulation factor XIa (chromogenic substrate S-2366); assay type: biochemical; settings: chromogenic substrate S-2366, 37° C.; read-out: FXIa inhibitory activity IC50
T1 construct: human blood coagulation factor XIa (Haematologic Technologies Inc.); purchased Haematologic Technologies Inc
Procedure: Inhibitory activities of the compound of the present invention on human blood coagulation factor XIa, factor VIIa, factor IXa, factor Xa, factor XIIa, plasma kallikrein and thrombin were evaluated. A chromogenic substrate solution was added to each of enzyme solutions, the absorbance at 405 nm was measured continuously at 37° C. for 5 minutes at intervals of 15 seconds, and the decomposition rate of each of substrates (mOD/min) was calculated. The half maximal (50%) inhibitory concentration (IC50) of the compound of the present invention on each of the enzymes was calculated by linear regression by using least-squares method from the concentration of the compound of the present invention which was converted in terms of natural logarithm and the rate of enzyme inhibition calculated according to the following equation.
The rate of enzyme inhibition (%) of the compound of the present invention was calculated by using the following equation: Rate of enzyme inhibition (%)=100×{(Cont(e)−BL(e))−(Comp(e)−BL(e))/(Cont(e)−BL(e))}
Cont (e): Decomposition rate of substrate (mOD/min) when enzyme solution and substrate solution were added to physiological saline containing 5% dimethyl sulfoxide
Comp (e): Decomposition rate of substrate (mOD/min) when enzyme solution and substrate solution were added to physiological saline containing 5% dimethyl sulfoxide and the compound of the present invention
The inhibitory activity on human blood coagulation factor XIa (Haematologic Technologies Inc.) was measured by using the enzyme solution adjusted to 0.1 U/mL by a buffer solution containing 300 mM of NaCl, 10 mM of KCl, 2 mg/mL of PEG 6000 and 100 mM of HEPES-NaOH (pH 7.4) as well as S-2366 (pyroglu-Pro-Arg-pNA, CHROMOGENIX) adjusted to 1 mM by distilled water.

standard human plasma = assay: Activated partial thromboplastin time (APTT) in standard human plasma; assay type: biochemical; settings: concentration required for doubling the coagulation time vs vehicle (1% DMSO)
Procedure: Activated partial thromboplastin time (APTT) and prothrombin time (PT) were measured by using a fully automatic device for measuring blood coagulation (CA-1500, Sysmex Corporation). On APTT or PT measurement, standard human plasma for the blood coagulation tests (Siemens Healthcare Diagnostics GmbH) was mixed with a diluted solution of the compound of the present invention, and thereafter, APTT reagent (Siemens Healthcare Diagnostics GmbH) and 0.02 M of calcium chloride or PT reagent (Siemens Healthcare Diagnostics GmbH) were automatically added to the mixture in order to initiate clot formation. The anticoagulation activity (APTT×2 or PT×2) of the compound of the present invention was expressed as a concentration required for doubling the coagulation time in the vehicle (1% DMSO) group. APTT×2 or PT×2 was determined by plotting the concentration of the compound of the present invention against a twofold increase in the coagulation time.

[2] = Pharmacokinetic (PK) tests in rats; assay type: in vivo; settings: for concentration at 8 h: male, Crj:CD(SD), oral, 8 hours after administration, read-out: Plasma concentration C8h; for concentration at 8 h / AUC: rat, plasma; for concentration at 8 h / APTT × 2 maintaining time / C8h/APTT × 2: rats; for concentration at 8 h / AUC / C8h/APTT × 2: 1 mg/kg per os; for AUC: po, fasted male Crj:CD(SD) rats; for APTT × 2 maintaining time: 1 mg/kg orally, period when plasma concentration exceeded APTT×2; for C8h/APTT × 2: C8h divided by APTT×2
Procedure: The compound of the present invention was administered to fasted male Crj:CD(SD) rats by intravenous injection as a single intravenous dose of 0.1 mg/kg (vehicle: 20% HP-β-CD solution) and by forced oral dosage as a dose of 1 mg/kg per os (vehicle: 0.5% methylcellulose solution). Blood samples were collected from cervical vein into heparinized syringes at 0.08, 0.25, 0.5, 1, 3 or 7 hours after administration by intravenous injection or 0.08, 0.25, 0.5, 1, 2, 4, 6, 8 or 24 hours after oral administration. Plasma was obtained by centrifugation, and plasma was stored at −20° C. until measurement of plasma concentration.
In order to measure the plasma concentration of the compound of the present invention, the plasma sample was subjected to deproteinization by using acetonitrile, was filtrated by using a filter, and thereafter, was diluted with purified water, and then was analyzed by LC/MS/MS. A column for analysis (Shim-pack XR-ODSII, 2.0 mm×75 mm, 2.2 μm) and mobile phases (0.1% formic acid in water and 0.1% formic acid in acetonitrile, flow rate: 0.5 mL/min) were used. The system was used by detection of cations in the Multiple Reaction Monitoring (MRM) mode.
The area under the blood concentration versus time curve (AUC) and the bioavailability (BA) of the compound of the present invention were calculated. In addition, as indices of the maintaining time of the anticoagulation activity in the case of oral administration, AUC/APTT×2, which is obtained by dividing AUC by APTT×2, and C8h/APTT×2, which is obtained by dividing C8h (the plasma concentration at 8 hours after administration) by APTT×2, were calculated.
In addition, the period of time when the compound concentration in plasma of the compound of the present invention exceeded APTT×2 (the APTT×2 maintaining time) was calculated from the change in the compound concentration in plasma in the case when the compound of the present invention was orally administered at a dose of 1 mg/kg. The longer the APTT×2 maintaining time is, the longer the period of time is when the anticoagulation activity is maintained after oral administration.

T1 sequence (P03951 388-625 limits assumed): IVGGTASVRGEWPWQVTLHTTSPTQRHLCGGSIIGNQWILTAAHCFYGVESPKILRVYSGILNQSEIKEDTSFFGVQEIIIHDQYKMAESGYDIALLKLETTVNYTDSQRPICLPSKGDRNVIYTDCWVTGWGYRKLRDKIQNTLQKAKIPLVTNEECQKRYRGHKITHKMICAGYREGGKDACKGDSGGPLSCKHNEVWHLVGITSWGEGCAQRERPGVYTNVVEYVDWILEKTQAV
T1 sequence (P03951 19-387 partner limits assumed): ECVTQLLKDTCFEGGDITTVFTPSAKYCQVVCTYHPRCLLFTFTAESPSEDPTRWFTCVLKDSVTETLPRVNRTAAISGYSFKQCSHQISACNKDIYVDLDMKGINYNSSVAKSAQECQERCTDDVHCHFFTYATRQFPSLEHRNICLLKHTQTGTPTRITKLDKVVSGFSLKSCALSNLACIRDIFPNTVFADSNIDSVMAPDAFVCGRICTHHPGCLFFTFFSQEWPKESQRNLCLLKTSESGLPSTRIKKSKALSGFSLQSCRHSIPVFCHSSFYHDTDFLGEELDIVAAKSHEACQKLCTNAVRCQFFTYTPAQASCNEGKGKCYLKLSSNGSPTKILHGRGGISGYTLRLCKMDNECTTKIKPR

| Structure (SMILES) | IC50 [1] [nM] | concentration at 8 h [2] [nM] | AUC [2] [µM·h] | APTT × 2 maintaining time [2] | C8h/APTT × 2 [2] | APTT × (standard human plasma) [µM] |
| --- | --- | --- | --- | --- | --- | --- |
| Nc1ccc(-c2nc(F)c([C@@H]3CCc4cc(-c5cc(Cl)ccc5-n5cnnn5)cc(=O)n43)[nH]2)c(F)n1 [Example 2 (10), (3S)-3-[2-(6-Amino-2-Fluoro-3-Pyridinyl)-4-Fluoro-1H-Imidazol-5-Yl]-7-[5-Chloro-2-(1H-Tetrazol-1-Yl)Phenyl]-2,3-Dihydro-5(1H)-Indolizinone] | 1.7 | 1000 | 15 | >8 h | 2.1 | 0.49 |
| Nc1ccc(-c2nc(Cl)c([C@@H]3CCc4cc(-c5cc(Cl)ccc5-n5cnnn5)cc(=O)n43)[nH]2)c(F)n1 [Comparative Example 2 (3), (3S)-3-[2-(6-amino-2-fluoro-3-pyridinyl)-4-chloro-1H-imidazol-5-yl]-7-[5-chloro-2-(1H-tetrazol-1-yl)phenyl]-2,3-dihydro-5(1H)-indolizinone] | 4.4 | 1100 | 23 | <2 h | 0.52 | 2.1 |
| Nc1ccc(-c2[nH]c([C@@H]3CCc4cc(-c5cc(Cl)ccc5-n5cnnn5)cc(=O)n43)nc2F)c(F)n1 [Example 1 (6), (3S)-3-[5-(6-Amino-2-Fluoro-3-Pyridinyl)-4-Fluoro-1H-Imidazol-2-Yl]-7-[5-Chloro-2-(1H-Tetrazol-1-Yl)Phenyl]-2,3-Dihydro-5(1H)-Indolizinone] | 1.7 | 880 | 33 | >8 h | 1.1 | 0.80 |
| Nc1ccc(-c2nc(F)c([C@@H]3CCc4nc(-c5cc(Cl)ccc5-n5cnnn5)cc(=O)n43)[nH]2)c(F)n1 [Example 3 (4), (6S)-6-[2-(6-Amino-2-Fluoro-3-Pyridinyl)-4-Fluoro-1H-Imidazol-5-Yl]-2-[5-Chloro-2-(1H-Tetrazol-1-Yl)Phenyl]-7,8-Dihydropyrrolo[1,2-a]Pyrimidin-4(6H)-One] | 1.9 | 1600 | 28 | >8 h | 3.4 | 0.47 |
| Nc1ccc(-c2cnc([C@@H]3CCc4cc(-c5cc(Cl)ccc5-n5cnnn5)cc(=O)n43)[nH]2)c(F)n1 [Comparative Example 1 (1), (3S)-3-[5-(6-amino-2-fluoro-3-pyridinyl)-1H-imidazol-2-yl]-7-[5-chloro-2-(1H-tetrazol-1-yl)phenyl]-2,3-dihydro-5(1H)-indolizinone] |  | 170 | 4.7 | 0* h | 0.15 | 1.2 |

More lines, in order of falling IC50 [1], values ahead:

| IC50 [1] [nM] | concentration at 8 h [2] [nM] | AUC [2] [µM·h] | APTT × 2 maintaining time [2] | C8h/APTT × 2 [2] | Structure (SMILES) | APTT × (standard human plasma) [µM] |
| --- | --- | --- | --- | --- | --- | --- |
| 1.6 | 180 | 4.2 | <2 h | 0.29 | COC(=O)Nc1ccc(-c2nc(Cl)c([C@@H]3CCc4nc(-c5cc(Cl)ccc5-n5cnnn5)cc(=O)n43)[nH]2)cc1 [Comparative Example 3 (1), methyl[4-(4-chloro-5-{(6S)-2-[5-chloro-2-(1H-tetrazol-1-yl)phenyl]-4-oxo-4,6,7,8-tetrahydropyrrolo[1,2-a]pyrimidin-6-yl}-1H-imidazol-2-yl)phenyl]carbamate] | 0.64 |
| 1.4 | 81 | 1.7 | <1 h | 0.15 | Nc1ccc(-c2[nH]c([C@@H]3CCc4cc(-c5cc(Cl)ccc5-n5cnnn5)cc(=O)n43)nc2F)cn1 [Comparative Example 1 (3), (3S)-3-[5-(6-amino-3-pyridinyl)-4-fluoro-1H-imidazol-2-yl]-7-[5-chloro-2-(1H-tetrazol-1-yl)phenyl]-2,3-dihydro-5(1H)-indolizinone] | 0.55 |
